Earlier results in the PKSmart pharmacokinetics tables (Seal et al. 2025).

Assay: not given per row; by the article one of three: Lombardo et al. 2013, J Clin Pharmacol 53:178, doi 10.1177/0091270012440282; 'New Drugs at FDA', novel drug approvals for 2021 and 2022 (the article's reference 43); Yap, Li, Chen 2006, J Mol Graph Model 24:383, doi 10.1016
Details: human; in vivo

Row | Compound | Vd [L/kg] | clearance [mL/min/kg] | half-life [h]
1 | CNCc1cc(-c2ccccc2F)n(S(=O)(=O)c2cccnc2)c1 | 13 | 22.6 | 6.8
2 | OCC(O)CO | – | 3.55 | –
3 | Cc1ncc([N+](=O)[O-])n1C[C@@H](C)O | – | 0.4 | –
4 | CC(=O)N(C[C@H](O)CO)c1c(I)c(C(=O)NCCO)c(I)c(C(=O)NC[C@H](O)CO)c1I | – | 1.44 | –
5 | CN=C1CN(O)C(c2ccccc2)=c2cc(Cl)ccc2=N1 | 0.25 | – | –
6 | C[C@H]1CN(C2CCC(C#N)(c3ccc(F)cc3)CC2)CC[C@]1(C(=O)O)c1ccccc1 (stereo partly specified) | – | 0.43 | –
7 | Cc1ccc(C)c(OCCCC(C)(C)C(=O)O)c1 | – | 1.7 | –
8 | CC1(C)C(=CC=C2CCCC(C=CC3=[N+](CCCCS(=O)(=O)O)c4ccc(S(=O)(=O)[O-])cc4C3(C)C)=C2Oc2ccc(CC(NC(=O)c3ccc(NCc4cnc5nc(N)[nH]c(=O)c5n4)cc3)C(=O)O)cc2)N(CCCCS(=O)(=O)O)c2ccc(S(=O)(=O)O)cc21 (stereo unspecified) | 0.29 | – | 0.44
9 | COCc1c(-c2ccc(F)cc2)c(=CC[C@H](O)C[C@H](O)CC(=O)O)c(C(C)C)nc1=C(C)C | – | 2.98 | –
10 | COc1ccc2c3c1O[C@@H]1[C@@H](O)C=C[C@@H]4[C@H](C2)N(C)CC[C@]341 | – | 11 | –
11 | CC(NC(C)(C)C)C(=O)c1cccc(Cl)c1 (stereo unspecified) | – | 36 | –
12 | Cc1cc2c(s1)Nc1ccccc1N=C2N1CCN(C)CC1 | – | 5.81 | 43.5
13 | CN1CCN(c2c(F)cc3c(=O)c(C(=O)O)cn4c3c2SCC4)CC1 | – | 0.57 | –
14 | CC(C)NC[C@@H](O)COc1ccc(COCCOC(C)C)cc1 | – | 3.55 | –
15 | CCC1(CCC(C)C)C(=O)NC(=O)NC1=O | – | 0.35 | –
16 | CON=C(C(=O)NC1C(=O)N2C(C(=O)[O-])=C(C[n+]3cccc4c3CCC4)CS[C@@H]12)c1csc(N)n1 (stereo partly specified) | – | 1.98 | –
17 | Oc1ccc2c3c1O[C@@H]1[C@@H](O)CC[C@]4(O)[C@H](C2)N(CC2CCC2)CC[C@@]314 | – | 29.7 | –
18 | O=C(O)CCC(NC(=O)NC(CCCCNC(=O)C(Cc1ccc2ccccc2c1)NC(=O)C1CCC(CNC(=O)CN2CCN(CC(=O)O)CCN(CC(=O)O)CCN(CC(=O)O)CC2)CC1)C(=O)O)C(=O)O (stereo unspecified) | 2.05 | 0.567 | 41.6
19 | NC(C(=O)NC1C(=O)N2C(C(=O)O)=C(Cl)CS[C@H]12)c1ccccc1 (stereo partly specified) | – | 6.1 | –
20 | Cc1cc(O)c(C(=O)NC(C(=O)NC2C(=O)N3C(C(=O)O)=C(CSc4nnnn4C)CS[C@H]23)c2ccc(O)cc2)cn1 (stereo partly specified) | – | 0.28 | –
21 | COc1cccc2c1C(=O)c1c(O)c3c(c(O)c1C2=O)C[C@](O)(C(=O)CO)C[C@@H]3O[C@@H]1C[C@H](N)[C@@H](O)[C@H](C)O1 | – | 16.5 | –
22 | CN[C@H]1CCc2[nH]c3ccc(C(N)=O)cc3c2C1 | – | 3.09 | –

Row | Compound | Vd [L/kg] | clearance [mL/min/kg] | half-life [h]
23 | Nc1nnc(-c2cccc(Cl)c2Cl)c(N)n1 | – | 0.51 | –
24 | O=[P@@]1(NCCCl)OCCCN1CCCl | – | 1.23 | –
25 | COc1ccc(C(=O)Nc2ccccc2CC[C@@H]2CCCCN2C)cc1 | – | 177 | –
26 | CCOc1cc(N)c(Cl)cc1C(=O)NC[C@H]1CN(Cc2ccc(F)cc2)CCO1 | – | 16.2 | –
27 | O=C(O)CN(CCN(CC(=O)O)CC(=O)O)CC(=O)O | – | 1.09 | –
28 | CC(C(=O)O)c1ccc(-c2ccccc2)c(F)c1 (stereo unspecified) | – | 0.35 | –
29 | CC(C)(Oc1ccc(CCNC(=O)c2ccc(Cl)cc2)cc1)C(=O)O | – | 1.67 | –
30 | Cc1cn([C@@H]2C=C[C@H](CO)O2)c(=O)[nH]c1=O | – | 8.24 | –
31 | NC[C@H](CC(=O)O)c1ccc(Cl)cc1 | – | 2.72 | –
32 | NC[C@H]1O[C@@H](O[C@H]2C(O)[C@@H](O[C@H]3O[C@@H](CO)[C@H](O)[C@@H](N)[C@@H]3O)[C@H](N)C[C@@H]2N)[C@H](N)C[C@@H]1O (stereo partly specified) | – | 1.35 | –
33 | C[C@@H]1c2cccc(O)c2C(=O)C2=C(O)[C@]3(O)C(=O)C(C(N)=O)=C(O)[C@H](N(C)C)[C@H]3[C@H](O)[C@H]21 | – | 0.52 | –
34 | O=C(O)C1C[C@H](C2CCCCC2)CN1C(=O)C[P@](=O)(O)CCCCc1ccccc1 (stereo partly specified) | – | 0.46 | –
35 | CCCN[C@@H]1CCc2nc(N)sc2C1 | – | 8.2 | –
36 | COP(=O)(OC)[C@H](O)C(Cl)(Cl)Cl | – | 5.67 | –
37 | CC(=O)OCC1=C(C(=O)O)N2C(=O)C(NC(=O)CSc3ccncc3)[C@@H]2SC1 (stereo partly specified) | – | 6.36 | –
38 | C=CCN1CCc2nc(N)sc2CC1 | – | 7.38 | –
39 | CN[C@H]1CC[C@H](c2ccc(Cl)c(Cl)c2)c2ccccc21 | – | 38 | –
40 | C=C/C=C/C[C@@H](C)[C@@H](O)C1C(=O)NC(CC)C(=O)N(C)CC(=O)N(C)C(CC(C)C)C(=O)NC(C(C)C)C(=O)N(C)C(CC(C)C)C(=O)NC(C)C(=O)NC(C)C(=O)N(C)C(CC(C)C)C(=O)N(C)C(CC(C)C)C(=O)N(C)C(C(C)C)C(=O)N1C (stereo partly specified) | 35.9 | 17.7 | 30
41 | O=C(O)CCC(NC(=O)NC(CCCCNC(=O)c1ccc([18F])nc1)C(=O)O)C(=O)O (stereo unspecified) | – | – | 3.47
42 | COc1cc(Cc2cnc(N)nc2N)cc(OC)c1Br | – | 0.6 | –
43 | CC[C@H](CO)NCCN[C@@H](CC)CO | – | 8.05 | –

Same assay, conditions: human; plasma

Row | Compound | fraction unbound
44 | [2H]C([2H])([2H])NC(=O)c1nnc(NC(=O)C2CC2)cc1Nc1cccc(-c2ncn(C)n2)c1OC | 0.14
45 | COc1ccc(-n2nccn2)c(C(=O)N2CCC[C@@]2(C)c2nc3c(C)c(Cl)ccc3[nH]2)c1 | 0.01
46 | CCOc1ncc(C)c2c1[C@H](c1ccc(C#N)cc1OC)C(C(N)=O)C(C)=N2 (stereo partly specified) | 0.08
47 | COc1cc2nccc(Oc3ccc(NC(=O)Nc4cc(C)on4)c(Cl)c3)c2cc1OC | 0.01
48 | COC(=O)C(c1ccccc1)C1CCCCN1C(=O)OC[n+]1cccc(C(=O)NC(CO)C(=O)[O-])c1 (stereo unspecified) | 0.44
49 | CC(C)[C@@H](C)[C@@]1(C)CC[C@]2(C)[C@H]3CC[C@@H]4[C@@]5(COC[C@@]4(C)[C@@H](OC[C@](C)(N)C(C)(C)C)[C@H](n4ncnc4-c4ccncc4)C5)C3=CC[C@@]2(C)C1C(=O)O (stereo partly specified) | 0.01
50 | CN1CCC(COc2cnc(-c3cccc(Cn4nc(-c5cccc(C#N)c5)ccc4=O)c3)nc2)CC1 | 0.02
51 | C=CC(=O)N1CC[C@H](n2nc(C#Cc3cc(OC)cc(OC)c3)c3c(N)ncnc32)C1 | 0.05
52 | COC(=O)Nc1c(N)nc(-c2nn(Cc3ccccc3F)c3ncc(F)cc23)nc1N | 0.02
53 | Cc1ccc(NC(=O)C2CCCN(C(=O)c3c(C)cccc3F)[C@H]2c2ccc(NC3CCCC3)cc2)cc1C(F)(F)F (stereo partly specified) | 0.01
54 | CC(C)CC(NC(=O)C(Cc1ccccc1)NC(=O)C(N)Cc1ccccc1)C(=O)NC(CCCCN)C(=O)N1CCC(N)(C(=O)O)CC1 (stereo unspecified) | 0.75
55 | CNCc1cc(-c2ccccc2F)n(S(=O)(=O)c2cccnc2)c1 | 0.14
56 | Cc1cc2c(s1)Nc1ccccc1N=C2N1CCN(C)CC1 | 0.07
57 | O=C(O)CCC(NC(=O)NC(CCCCNC(=O)C(Cc1ccc2ccccc2c1)NC(=O)C1CCC(CNC(=O)CN2CCN(CC(=O)O)CCN(CC(=O)O)CCN(CC(=O)O)CC2)CC1)C(=O)O)C(=O)O (stereo unspecified) | 0.35
58 | C=C/C=C/C[C@@H](C)[C@@H](O)C1C(=O)NC(CC)C(=O)N(C)CC(=O)N(C)C(CC(C)C)C(=O)NC(C(C)C)C(=O)N(C)C(CC(C)C)C(=O)NC(C)C(=O)NC(C)C(=O)N(C)C(CC(C)C)C(=O)N(C)C(CC(C)C)C(=O)N(C)C(C(C)C)C(=O)N1C (stereo partly specified) | 0.03
